Test results: patent US20100279976A1, “USE OF ARTEMISININ AND ITS DERIVATIVES IN CANCER THERAPY” (SHANGHAI INSTITUTES FOR BIOLOGICAL SCIENCES, CAS, priority 2009, published 2010)

How the values were obtained:
OVCAR-3 xenograft tumors = assay: OVCAR-3 xenograft model in nude mice; assay type: in vivo; conditions: 5 days/week
Protocol: Four to six week old female athymic nude mice (BALB/c, nu/nu) may be purchased from Shanghai Experimental Animal Center (Shanghai, China). Animal studies are approved by the Institute for Nutritional Sciences. The tumor xenograft model may be established as follows. Briefly, A2780 and OVCAR-3 cells may be harvested and re-suspended in serum-free RPMI 1640 medium containing 20% (v/v) Matrigel (BD Biosciences, Bedford, Mass., USA). Aliquots of cells (˜5×10^6 cells/0.2 ml) may be injected subcutaneously into the left inguinal area of the mice. The tumor growth and body weight of the mice may be monitored every other day. Tumor mass may be determined. Mice bearing palpable tumors (˜70 mg) may be randomly divided into treatment and control groups n=5 mice/group). CBP may be dissolved in saline, and DHA may be dissolved in cremophor EL:ethanol:saline (5:5:90, v/v/v). DHA may be administered via i.p. injection at doses of 10 and 25 mg/kg/5 days/week for 3 weeks) alone or combined with CBP (at a single dose of 120 mg/kg, once on day 0). The control group receives saline only. Mice may be killed on day 18. Tumors may be carefully excised, trimmed of extraneous fat or connective tissue, and homogenized in RIPA buffer (100 mg tumor tissue/1 ml RIPA) and prepared for immunoblotting analysis as described above.

A2780 cells = assay: Annexin V-FITC apoptosis assay, A2780; assay type: cell-based, human; conditions: A2780, 50 μM, 24 hrs
Protocol: (§1) ART- and DHA-induced apoptosis alone or in combination with gemcitabine in HepG2 and Hep3B cells or in combination with carboplatin in ovarian cancer cells may be determined by flow cytometry using the Annexin V-FITC Apoptosis Detection kit following the manufacturer's instructions. […] The cells may then be harvested, washed in PBS, and incubated with Annexin V and propidium iodide for staining in binding buffer at room temperature for 10 min in the dark. The stained cells may be analyzed using the FACSAria instrument.

OVCAR-3 cells = assay: Annexin V-FITC apoptosis assay, OVCAR-3; assay type: cell-based, human; conditions: for increase in apoptosis versus control: 24 hrs
Protocol: as §1

SMILES: C[C@H]1[C@@H](O)O[C@@H]2O[C@@]3(C)CC[C@H]4[C@H](C)CC[C@@H]1[C@@]24OO3 [DHA, dihydroartemisinin]
- tumor growth inhibition (OVCAR-3 xenograft tumors; DHA 10 mg/kg i.p.): 14%
- tumor growth inhibition (OVCAR-3 xenograft tumors; DHA 25 mg/kg i.p.): 37%
- increase in apoptosis versus control (A2780 cells): 17 fold
- increase in apoptosis versus control (OVCAR-3 cells; OVCAR-3, 25 μM): 18 fold
- increase in apoptosis versus control (OVCAR-3 cells; OVCAR-3, 50 μM): 22 fold
- rate of apoptosis (control regarded as 100%) (OVCAR-3 cells; OVCAR-3, 24 hrs, DHA 1 μM, CBP 500 μM, alone or combined): 266%
